Entries after “also recorded” stand apart in the source; their conditions may differ. Where two headings read alike, the source gives them in different places.
Experiments:
[1] = human, in vivo; for Side effects from the virus: iv
tumor = system: tumor; parameters: species or system patient; details: human, in vivo
[2] = system: recombinant vaccinia virus GLV-1h68; type: cell-based
[3] = system: modified vaccinia virus, such as GLV-1h68; parameters: species or system patient; details: human, in vivo
[4] = system: recombinant vaccinia virus GLV-1h68; type: cell-based; remark: listed apart in the source
[5] = system: PANC-1 human pancreatic carcinoma cells; parameters: species or system nude mice; details: mouse, in vivo
[6] = system: A549 lung carcinoma cells; parameters: species or system nude mice; details: mouse, in vivo
[7] = system: recombinant vaccinia virus GLV-1h68; type: cell-based; remark: listed apart in the source
[8] = system: GI-101A human breast carcinoma cells; parameters: species or system nude mice; details: mouse, in vivo
[9] = Pock formation (systemic toxicity) after i.v. GLV-1h68 in GI-101A tumor-bearing mice; details: 80 days after virus injection; GLV-1h68 virus-treated animals given four doses of irinotecan 80 mg/kg i.p.; n=8

| SMILES | Body weight and pock formation [1] | Patient's symptoms [1] | Virus-associated side effects [1] | Side effects from the virus [1] | Tumor growth (tumor) | Concentration at which growth of GLV-1h68 was completely inhibited [2] | Effect on GLV-1h68 growth in GI-101A cells (in words) [2] | Viral load in the bloodstream [3] | Viral load in the bloodstream: decrease [3] | Viral load in the bloodstream: increase [3] | Viral load in the bloodstream ([3]; iv) | Concentration at which growth of GLV-1h68 was completely inhibited [4] | Effect on GLV-1h68 growth in GI-101A cells (in words) [4] | Tumor growth (tumor; iv) | Effect on tumor growth (in words) [5] | Effect on tumor growth (in words) [6] | Concentration at which growth of GLV-1h68 was completely inhibited [7] | Effect on tumor growth (in words) [8] | Animals in which no pocks were observed on any part of the body [9] |
| --- | --- | --- | --- | --- | --- | --- | --- | --- | --- | --- | --- | --- | --- | --- | --- | --- | --- | --- | --- |
| N.N.[Cl][Pt][Cl] [Cisplatin] | body weight of the patient is improved and any pock formation dissipates | symptoms subside | Fewer virus-associated side effects | suffers fewer side effects from the virus | tumor growth is arrested or decreases | ≥ 100 µM | started to inhibit; also recorded: significantly inhibited the virus growth | is maintained or increases before subsequently decreasing | decreases more quickly; also recorded: decreases more rapidly | increased to a lesser extent | decreases over the period of time |  |  |  |  |  |  |  |  |
| COc1cccc2c1C(=O)c1c(O)c3c(c(O)c1C2=O)C[C@@](O)(C(=O)CO)C[C@@H]3O[C@H]1C[C@H](N)[C@H](O)[C@H](C)O1 [Doxorubicin] | body weight of the patient is improved and any pock formation dissipates | symptoms subside | Fewer virus-associated side effects | suffers fewer side effects from the virus | tumor growth is arrested or decreases |  |  | is maintained or increases before subsequently decreasing | decreases more quickly; also recorded: decreases more rapidly | increased to a lesser extent | decreases over the period of time | ≥ 1 µM | started to inhibit |  |  |  |  |  |  |
| Nc1ccn(C2OC(CO)C(O)C2(F)F)c(=O)n1 (centres unmarked) [Gemcitabine, 4-amino-1-[3,3-difluoro-4-hydroxy-5-(hydroxymethyl)tetrahydrofuran-2-yl]-1H-pyrimidine-2-one] | body weight of the patient is improved and any pock formation dissipates | symptoms subside | Fewer virus-associated side effects | suffers fewer side effects from the virus | tumor growth is arrested or decreases |  |  | is maintained or increases before subsequently decreasing | decreases more quickly; also recorded: decreases more rapidly | increases to a lesser extent | decreases over the period of time |  |  | tumor growth is arrested or decreases | decrease tumor growth in the mice at both 50 mg/kg and 100 mg/kg doses to some extent | did not cause any inhibition of tumor growth | ≥ 1.0 µM |  |  |
| CCc1c2c(nc3ccc(OC(=O)N4CCC(N5CCCCC5)CC4)cc13)-c1cc3c(c(=O)n1C2)COC(=O)[C@]3(O)CC [Irinotecan] | body weight of the patient is improved and any pock formation dissipates | symptoms subside | Fewer virus-associated side effects | suffers fewer side effects from the virus | tumor growth is arrested or decreases |  |  | is maintained or increases before subsequently decreasing | decreases more quickly; also recorded: decreases more rapidly | increased to a lesser extent | decreases over the period of time |  |  | tumor growth is arrested or decreases |  |  |  | increased tumor growth | 7 out of 8 |
